# Structures can show the parent of a compound that is named as a salt. Marks after values point to notes of the source that are not given here.
# System: compound 48/80-induced systemic anaphylaxis-like reactions in mice
# Assay: Compound 48/80-induced systemic anaphylaxis-like reactions in mice (mortality)
# Format: in vivo
# Conditions: n = 8, oral 1 h before i.p. compound 48/80 (8 mg/kg), mortality within 1 h
# Description: Five groups each of 8 male albino mice were used in this experiment. Mice were housed 4 per cage and were maintained at room temperature (25 ± 0.5 °C). All experiments were performed in compliance with the guidelines approved by the ethics committee of Faculty of Pharmacy, The British University in Egypt (approval number Ex-1904). The mice in the first group were administered phosphate buffer saline orally (negative control group), while the second group were administered phosphate buffer saline 1 hour prior to an intraperitoneal injection of 8 mg/kg of the mast cell degranulator compound 48/80 which induces systemic anaphylaxis-like reactions in mice (positive control group). […] The mortality was monitored for 1 h after induction of anaphylactic shock. After the mortality test, blood was obtained from the heart of each mouse by cardiac puncture.
compound,measurement,value
"CC(C)(C(=O)O)c1ccc(C(O)CCCN2CCC(C(O)(c3ccccc3)c3ccccc3)CC2)cc1 (stereo not shown) [FEX powder, Fexofenadine HCl]",Mortality,62.5% *
